Measurements reported in patent publication US11478451B1, “Macrocyclic chlorine substituted indole derivatives” (Bayer Aktiengesellschaft, priority 2017, dated 2022).
Structures can show the parent of a compound that is named as a salt. Where two headings read alike, the source gives them in different places.

How the values were obtained:
SUDHL5 cells [1] = experiment: Induction of cytotoxicity (CellTiter-Glo, 5 h), SUDHL5; conditions: SUDHL5, 5 h
SUDHL5 cells [2] = experiment: Antiproliferation assay (CellTiter-Glo, 72 h), SUDHL5; type: cell-based; conditions: IC50, median, SUDHL5, 72 h, read-out: Antiproli SUDHL5 [M] (median)
Protocol: (§1) Assessment of the Anti-Proliferative Effect of Compounds in Different Cell Lines
(§2) The impact of compounds on the proliferation of different cell lines was assessed using the CellTiter-Glo® Luminescent Cell Viability reagent from Promega (G7573).
(§3) In parallel, cells were plated in a reference (day 0) plate for time zero determination.
(§4) Rim wells were excluded. The cells were incubated for 72 h hours in a humidified incubator at 37° C. The day 0 plate was measured by adding 30 μL/well of CTG solution (CellTiter-Glo® Luminescent Cell Viability reagent, Promega G7573) to time zero wells in the reference plate followed by a 10 minutes incubation and luminescence reading at 0.1 ms. using the PHERAstar FS microplate reader (BMG Labtech).
(§5) After 72 h incubation, the treated plates were measured in the same way as the day 0 plate mentioned above.

SUDHL10 cells [3] = experiment: Induction of caspase-3/7 activity (Caspase-Glo 3/7), SUDHL10; type: cell-based; conditions: EC50, median, SUDHL10, 3 h treatment
Protocol: (§6) Induction of Caspase-3/7 Activity Upon Treatment of Cells with Selected Compounds
(§7) The BH3-domain of MCL-1 sequesters pro-apoptotic proteins, thereby inhibiting apoptosis. In contrast, MCL-1 inhibitors are expected to antagonize this effect leading to an increase in apoptosis, which can be determined by measuring the activity of caspase-3/7.
(§8) The activity of caspase-3/7 was determined in DLBCL (Diffuse large B-cell lymphoma) cell lines (SUDHL5 and SUDHL10) upon treatment with different compounds, using the Caspase-Glo® 3/7 reagent from Promega (G8092).
(§9) Rim wells were excluded. The cells were incubated for 3 h hours in a humidified incubator at 37° C.
(§10) For the evaluation of the results, the background measured with “medium-only” was subtracted from all other values.

SUDHL5 cells [4] = experiment: Induction of caspase-3/7 activity (Caspase-Glo 3/7), SUDHL5; type: cell-based; conditions: EC50, median, SUDHL5, 3 h treatment
Protocol: as §6, §7, §8, §9, §10

AMO-1 cells = experiment: Antiproliferation assay (CellTiter-Glo, 72 h), AMO-1; type: cell-based; conditions: IC50, median, AMO-1, 72 h, read-out: Antiproli AMO-1 [M] median
Protocol: as §1, §2, §3, §4, §5

SUDHL10 cells [5] = experiment: Induction of cytotoxicity (CellTiter-Glo, 5 h), SUDHL10; conditions: SUDHL10, 5 h
HMC-1-8 cells = experiment: Antiproliferation assay (CellTiter-Glo, 72 h), HMC-1-8; type: cell-based; conditions: IC50, median, HMC-1-8, 72 h, read-out: Antiproli HMC-1-8 [M] median
Protocol: as §1, §2, §3, §4, §5

[6] = read-out: Cytotox SUDHL5 [M] (median), IC50, median
[7] = read-out: Cytotox SUDHL10 [M] (median), IC50, median
[8] = Homo sapiens, SU-DHL-5, 5 h, read-out: Cytotox SUDHL5 [M] (median), IC50, median
[9] = Homo sapiens, SU-DHL10, 5 h, read-out: Cytotox SUDHL10 [M] (median), IC50, median

Compound | IC50 (SUDHL5 cells [1]; [6]) [M] | IC50 (SUDHL5 cells [2]) [M] | EC50 (SUDHL10 cells [3]) [nM] | IC50 (AMO-1 cells) [M] | IC50 (SUDHL10 cells [5]; [7]) [M] | IC50 (SUDHL5 cells [2]; Homo sapiens, SU-DHL-5, 72 h) [M] | EC50 (SUDHL5 cells [4]; Homo sapiens, SU-DHL-5, 3 h) [nM] | IC50 (AMO-1 cells; Homo sapiens, AMO1, 72 h) [M] | other results
CCc1c2c(nn1C)COCC1(CCn3c(C(=O)O)c(CCCOc4cccc5cc(F)ccc45)c4ccc(Cl)c-2c43)CC1 [Example 111, (+)-4′-chloro-3′-ethyl-7′-{3-[(6-fluoronaphthalen-1-yl)oxy]propyl}-2′-methyl-2′,10′,11′,15′-tetrahydro-13′H-spiro[cyclopropane-1,12′-pyrazolo[4′,3′:9,10][1,6]oxazacycloundecino[8,7,6-hi]indole]-8′-carboxylic acid-N-ethylethanamine salt] | 6e-06 | 3.1e-07 | 4900 | 8.4e-06 | 6.7e-06 |  |  |  | EC50 (SUDHL5 cells [4]): 5000 nM
CCc1c2c(nn1C)CCCCCCn1c(C(=O)O)c(CCCOc3cccc4cc(F)ccc34)c3ccc(Cl)c-2c31 (single isomer, unassigned; enantiomer 1) [Example 70, (+)-4-chloro-3-ethyl-7-{3-[(6-fluoronaphthalen-1-yl)oxy]propyl}-2-methyl-10,11,12,13,14,15-hexahydro-2H-pyrazolo[4′,3′:4,5]azacycloundecino[3,2,1-hi]indole-8-carboxylic acid-N-ethylethanamine salt (Enantiomer 1)] |  |  |  |  |  | 1.5e-06 | 710 | 1.1e-06 | IC50 (SUDHL5 cells [1]; [8]): 1e-06 M; EC50 (SUDHL10 cells [3]; Homo sapiens, SU-DHL10, 3 h): 1300 nM; IC50 (SUDHL10 cells [5]; [9]): 1.7e-06 M
CCc1c2c(nn1C)CN(CCC(C)(C)O)CCCCn1c(C(=O)O)c(CCCOc3cccc4cc(F)ccc34)c3ccc(Cl)c-2c31 (single isomer, unassigned; enantiomer 1) [Example 140, 4-chloro-3-ethyl-7-{3-[(6-fluoronaphthalen-1-yl)oxy]propyl}-14-(3-hydroxy-3-methylbutyl)-2-methyl-10,11,12,13,14,15-hexahydro-2H-pyrazolo[3′,4′:8,9][1,6]diazacycloundecino[10,11,1-hi]indole-8-carboxylic acid (Enantiomer 1)] |  |  |  |  |  |  |  |  | IC50 (HMC-1-8 cells; 72 h): 1.4e-06 M
CCc1c2c(nn1C)CCCN(C)CCn1c(C(=O)O)c(CCCOc3cccc4cc(F)ccc34)c3ccc(Cl)c-2c31 (single isomer, unassigned) [Example 117, (−)-4-chloro-3-ethyl-7-{3-[(6-fluoronaphthalen-1-yl)oxy]propyl}-2,12-dimethyl-10,11,12,13,14,15-hexahydro-2H-pyrazolo[3′,4′:8,9][1,4]diazacycloundecino[10,11,1-hi]indole-8-carboxylic acid] | 2.6e-06 | 3.4e-06 | 2600 | 1.2e-06 | 2.3e-06 |  |  |  | EC50 (SUDHL5 cells [4]): 2400 nM
CCc1c2c(nn1C)COCC1(CCn3c(C(=O)O)c(CCCOc4cccc5ccccc45)c4ccc(Cl)c-2c43)CC1 (racemic) [Example 72, (rac)-4′-chloro-3′-ethyl-2′-methyl-7′-{3-[(naphthalen-1-yl)oxy]propyl}-2′,10′,11′,15′-tetrahydro-13′H-spiro[cyclopropane-1,12′-pyrazolo[4′,3′:9,10][1,6]oxazacycloundecino[8,7,6-hi]indole]-8′-carboxylic acid] |  |  |  |  |  | 8.8e-07 | 730 | 2.8e-06 | IC50 (SUDHL5 cells [1]; [8]): 1e-06 M; EC50 (SUDHL10 cells [3]; Homo sapiens, SU-DHL10, 3 h): 2800 nM; IC50 (SUDHL10 cells [5]; [9]): 2.5e-06 M
Cc1c2c(nn1C)COCC1CCC1Cn1c(C(=O)O)c(CCCOc3cccc4ccccc34)c3ccc(Cl)c-2c31 (single isomer, unassigned) [Example 80, 3-chloro-4,5-dimethyl-15-{3-[(naphthalen-1-yl)oxy]propyl}-5,7,9,9a,10,11,11a,12-octahydrocyclobuta[3,4]pyrazolo[4′,3′:9,10][1,6]oxazacycloundecino[8,7,6-hi]indole-14-carboxylic acid] |  |  |  |  |  | 2.2e-07 |  | 1.9e-06 | IC50 (SUDHL5 cells [1]; read-out: Cytotox SUDHL5 [M] (median), IC50, median, listed as 080): 5.8e-07 M; EC50 (SUDHL10 cells [3]; listed as 080): 450 nM; EC50 (SUDHL5 cells [4]; listed as 080): 490 nM; IC50 (SUDHL10 cells [5]; read-out: Cytotox SUDHL10 [M] (median), IC50, median, listed as 080): 8.1e-07 M
CCc1c2c(nn1C)COCC1CC1Cn1c(C(=O)O)c(CCCOc3cccc4cc(F)ccc34)c3ccc(Cl)c-2c31 (racemic) [Example 106, (rac)-3-chloro-4-ethyl-14-{3-[(6-fluoronaphthalen-1-yl)oxy]propyl}-5-methyl-5,7,9a,10,10a,11-hexahydro-9H-cyclopropa[3,4]pyrazolo[4′,3′:9,10][1,6]oxazacycloundecino[8,7,6-hi]indole-13-carboxylic acid] | 2.8e-06 | 2.1e-06 | 4600 | 8.1e-06 | 5.8e-06 |  | 2400 |  | 
CCc1c2c(nn1C)CN(C)CC(F)(F)CCn1c(C(=O)O)c(CCCOc3cccc4cc(F)ccc34)c3ccc(Cl)c-2c31 (single isomer, unassigned) [Example 128, 4-chloro-3-ethyl-12,12-difluoro-7-{3-[(6-fluoronaphthalen-1-yl)oxy]propyl}-2,14-dimethyl-10,11,12,13,14,15-hexahydro-2H-pyrazolo[3′,4′:8,9][1,6]diazacycloundecino[10,11,1-hi]indole-8-carboxylic acid] | 2.3e-06 | 4.1e-06 | 3400 | 6.5e-06 | 3.6e-06 |  |  |  | EC50 (SUDHL5 cells [4]): 2100 nM
CCc1c2c(nn1C)CN(CCN1CCOCC1)CCCCn1c(C(=O)O)c(CCCOc3cccc4cc(F)ccc34)c3ccc(Cl)c-2c31 (single isomer, unassigned; enantiomer 1) [Example 142, 4-chloro-3-ethyl-7-{3-[(6-fluoronaphthalen-1-yl)oxy]propyl}-2-methyl-14-[2-(morpholin-4-yl)ethyl]-10,11,12,13,14,15-hexahydro-2H-pyrazolo[3′,4′:8,9][1,6]diazacycloundecino[10,11,1-hi]indole-8-carboxylic acid (Enantiomer 1)] |  |  |  |  |  |  |  |  | IC50 (HMC-1-8 cells): 7.5e-07 M
Cc1c2c(nn1C)COCCCCn1c(C(=O)O)c(CCCOc3cccc4cc(F)ccc34)c3ccc(Cl)c-2c31 (single isomer, unassigned; enantiomer 1) [Example 16, (−)-4-chloro-7-{3-[(6-fluoronaphthalen-1-yl)oxy]propyl}-2,3-dimethyl-2,10,11,12,13,15-hexahydropyrazolo[4′,3′:9,10][1,6]oxazacycloundecino[8,7,6-hi]indole-8-carboxylic acid (Enantiomer 1)] |  |  |  |  |  | 1.5e-06 | 3600 | 8.9e-06 | IC50 (SUDHL5 cells [1]; [8]): 3.3e-06 M; EC50 (SUDHL10 cells [3]; Homo sapiens, SU-DHL10, 3 h): 5200 nM; IC50 (SUDHL10 cells [5]; [9]): 4.9e-06 M
CCc1c2c(nn1C)CN(CC(F)F)CCCCn1c(C(=O)O)c(CCCOc3cccc4cc(F)ccc34)c3ccc(Cl)c-2c31 (single isomer, unassigned; enantiomer 1) [Example 75, (+)-4-chloro-14-(2,2-difluoroethyl)-3-ethyl-7-{3-[(6-fluoronaphthalen-1-yl)oxy]propyl}-2-methyl-10,11,12,13,14,15-hexahydro-2H-pyrazolo[3′,4′:8,9][1,6]diazacycloundecino[10,11,1-hi]indole-8-carboxylic acid-N-ethylethanamine salt (Enantiomer 1)] |  |  |  |  |  |  |  |  | IC50 (SUDHL5 cells [1]; read-out: Cytotox SUDHL5 [M] (median), IC50, median, listed as 075): 9.1e-07 M; IC50 (SUDHL5 cells [2]; listed as 075): 1.6e-06 M; EC50 (SUDHL10 cells [3]; listed as 075): 3500 nM; EC50 (SUDHL5 cells [4]; listed as 075): 550 nM; IC50 (AMO-1 cells; listed as 075): 4.8e-06 M; IC50 (SUDHL10 cells [5]; read-out: Cytotox SUDHL10 [M] (median), IC50, median, listed as 075): 1.4e-06 M
